Legend:
H^+ /K^+ -ATPase = biological target: T1, H^+ /K^+ -ATPase (Oryctolagus cuniculus, UniProt P27112); assay: Inhibition of enzyme activity: in vitro inhibition of H+/K+-ATPase (TEST 1); format: biochemical, rabbit; conditions: 5 min pre-incubation at 37° C., 4 mM ATP
T1 construct: The gastric mucous membrane was removed from a rabbit; from tissue; host or cells: rabbit gastric mucosa, microsomal fraction (77,000 g)
Description: In this test, omeprazole [5-methoxy-2-[[(4-methoxy-3,5-dimethyl-2-pyridinyl)methyl]sulfinyl]-1H-benzimidazole] was used as the control compound.
The gastric mucous membrane was removed from a rabbit and then centrifuged with 77,000 g using a ultra-centrifuge to separate the microsomal fraction which was used as the source of H^+ /K^+ -ATPase enzyme for this test. 60 μg of H^+ /K^+ -ATPase was pre-incubated with the sample (the compound according to the present invention) for 5 minutes at 37° C. and then 4 mM ATP as the substrate and 4 mM Mg^++, 20 mM K^+ as the cofactor were added thereto. Then, the amount of inorganic phosphorus thus produced was determined using a spectrophotometer at 660 nm and converted into the amount of protein. […]

gastric juice secretion = assay: Effect on inhibition of gastric juice secretion, in vivo, Shay method (TEST 2); parameters: species or system rat (SD male rats); conditions: for Volume of gastric juice / Inhibition rate, gastric juice secretion: 5 hours; for Volume of gastric juice: pylorus-ligated rats; for Inhibition rate, gastric juice secretion: vs normal group
Description: (§1) The specific test methods are as follows.
(§2) SD male rats (200±20 g) were fasted for 24 hours, except for water, and then anesthesized with ether. The abdomen of rats was incised and then the pylorus was ligated. The test compounds were suspended or dissolved in 5% CMC (carboxymethylcellulose) and injected into duodenum. After the abdomen was sutured, the rats were allowed to stand for 5 hours and then sacrificed with ether. The stomach was removed from rats and the gastric juices were collected. The gastric juice was centrifuged with 10,000 xg for 10 minutes at 4° C. to remove the precipitate. The amount of gastric juice and acidity were determined using pH 7.0 end point assay with 0.02N NaOH and then the total acid output was calculated.

gastric acidity = assay: Effect on inhibition of acidity (total acid output), in vivo, Shay method (TEST 2); parameters: species or system rat (SD male rats); conditions: for Volume (acidity, total acid output) / Inhibition rate, acidity: 5 hours; for Volume (acidity, total acid output): pylorus-ligated rats; for Inhibition rate, acidity: vs normal group
Description: as §1, §2

in vivo = conditions: mouse, po
Description: (§3) Five weeks aged ICR (male, female) mouse were pre-bred in the breeding cage for one week and then the animals showing a smooth gain in body weight were randomly selected and used in this test. The amount to be administered to the test animals was established on the basis of the maximum dose of 4,000 mg/kg with the common ratio of 1.5.
(§4) The test compounds in a powder form were suspended in 0.5% methylcellulose and administered per oral using a syringe. The other specific conditions for administration are described in the following.
(§5) In the above test, the control group received only 0.5% methylcellulose.

ICR (male, female) mouse = assay: in vivo; conditions: po
Description: as §3, §4, §5

[1] = in words, even at a lower dose than that of the known anti-ulcer agent

T1 sequence (P27112 2-1035 limits assumed): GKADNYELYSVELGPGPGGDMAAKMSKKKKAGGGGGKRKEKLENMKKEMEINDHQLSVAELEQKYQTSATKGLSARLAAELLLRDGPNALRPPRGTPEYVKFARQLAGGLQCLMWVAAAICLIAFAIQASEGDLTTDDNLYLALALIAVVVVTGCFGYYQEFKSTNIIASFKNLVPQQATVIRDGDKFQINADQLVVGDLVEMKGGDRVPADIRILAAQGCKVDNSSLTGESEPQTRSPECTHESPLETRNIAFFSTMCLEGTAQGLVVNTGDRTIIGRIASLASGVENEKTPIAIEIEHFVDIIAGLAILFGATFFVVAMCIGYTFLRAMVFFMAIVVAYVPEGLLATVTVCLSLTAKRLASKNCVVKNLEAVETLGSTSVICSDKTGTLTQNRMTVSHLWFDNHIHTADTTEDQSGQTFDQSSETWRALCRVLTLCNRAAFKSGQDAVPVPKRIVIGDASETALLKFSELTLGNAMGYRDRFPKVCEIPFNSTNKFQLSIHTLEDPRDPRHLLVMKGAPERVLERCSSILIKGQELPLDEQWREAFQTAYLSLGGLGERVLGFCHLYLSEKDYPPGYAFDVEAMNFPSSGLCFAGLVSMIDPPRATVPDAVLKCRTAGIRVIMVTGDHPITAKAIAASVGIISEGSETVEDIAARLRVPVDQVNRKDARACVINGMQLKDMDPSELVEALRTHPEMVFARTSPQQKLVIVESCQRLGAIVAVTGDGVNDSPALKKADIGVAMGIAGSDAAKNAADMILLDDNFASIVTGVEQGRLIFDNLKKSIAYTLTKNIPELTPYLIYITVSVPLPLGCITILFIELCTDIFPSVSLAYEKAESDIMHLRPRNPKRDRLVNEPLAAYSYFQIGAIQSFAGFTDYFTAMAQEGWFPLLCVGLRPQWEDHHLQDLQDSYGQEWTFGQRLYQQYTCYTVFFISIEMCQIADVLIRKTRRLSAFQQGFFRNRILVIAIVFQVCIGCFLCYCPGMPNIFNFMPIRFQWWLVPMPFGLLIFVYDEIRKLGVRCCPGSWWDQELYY
T1 sequence (P18597 whole entry partner): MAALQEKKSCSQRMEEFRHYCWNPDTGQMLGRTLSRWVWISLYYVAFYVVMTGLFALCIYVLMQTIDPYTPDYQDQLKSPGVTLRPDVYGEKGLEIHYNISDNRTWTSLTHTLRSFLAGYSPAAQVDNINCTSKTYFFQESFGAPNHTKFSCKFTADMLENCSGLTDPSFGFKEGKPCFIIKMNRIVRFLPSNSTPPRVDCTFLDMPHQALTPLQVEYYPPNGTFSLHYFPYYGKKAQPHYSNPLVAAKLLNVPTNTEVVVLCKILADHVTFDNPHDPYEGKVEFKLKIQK

COc1ccnc(C[S+]([O-])c2nc3cc(-n4cccc4)ccc3[nH]2)c1C (stereo not drawn) [Compound 2, 2-[[(4-methoxy-3-methyl)-2-pyridinyl]methylsulfinyl]-5-(1H-pyrrol-1-yl)-1H-benzimidazole]
IC50 (H^+ /K^+ -ATPase): 23 µM
Volume of gastric juice (gastric juice secretion; 3 mg/kg, into duodenum): 1.98 ± 0.23 ml/100 g BW
Inhibition rate, gastric juice secretion (gastric juice secretion; 3 mg/kg, into duodenum): 46.45%
Volume of gastric juice (gastric juice secretion; 10 mg/kg, into duodenum): 1.31 ± 0.10 ml/100 g BW
Inhibition rate, gastric juice secretion (gastric juice secretion; 10 mg/kg, into duodenum): 64.55%
Volume of gastric juice (gastric juice secretion; 30 mg/kg, into duodenum): 0.99 ± 0.14 ml/100 g BW
Inhibition rate, gastric juice secretion (gastric juice secretion; 30 mg/kg, into duodenum): 73.11%
ED50 (gastric juice secretion; Rattus norvegicus, 5 h, rats, into duodenum, read-out: ED50 for the effect on inhibition of gastric acid secretion): 3.6 mg/kg
effect for inhibition of gastric acid secretion (gastric juice secretion; in words): good effects
inhibition of gastric juice secretion (gastric juice secretion; [1]): strong inhibition of gastric juice secretion
Volume (acidity, total acid output) (gastric acidity; 3 mg/kg, into duodenum): 31.09 ± 4.10 μ Eq/hr
Inhibition rate, acidity (gastric acidity; 3 mg/kg, into duodenum): 60.08%
Volume (acidity, total acid output) (gastric acidity; 10 mg/kg, into duodenum): 10.20 ± 1.93 μ Eq/hr
Inhibition rate, acidity (gastric acidity; 10 mg/kg, into duodenum): 86.90%
Volume (acidity, total acid output) (gastric acidity; 30 mg/kg, into duodenum): 5.32 ± 3.30 μ Eq/hr
Inhibition rate, acidity (gastric acidity; 30 mg/kg, into duodenum): 93.17%
ED50 (gastric acidity; Rattus norvegicus, 5 h, rats, into duodenum): 1.6 mg/kg
effect for lowering acidity (gastric acidity; in words): good effects
acidity lowering effect (gastric acidity; [1]): high acidity lowering effect
LD50 (in vivo): ≥ 4000 mg/kg
LD50 (ICR (male, female) mouse): > 4000.0 mg/kg
change in body weight (ICR (male, female) mouse): does not affect the normal change in body weight
change in internal and external organs (ICR (male, female) mouse): no effect on the internal and external organs
safety (ICR (male, female) mouse): very safe compound
